{"source": "patent US12194039B2", "about": "“Methods of treating heart failure by administering omecamtiv mecarbil” (Cytokinetics, Inc., priority 2020, dated 2025)", "key": {"[1]": {"biological_target": "T1, BCRP (Homo sapiens, UniProt Q9UNQ0)", "T1 sequence (Q9UNQ0 1-655)": "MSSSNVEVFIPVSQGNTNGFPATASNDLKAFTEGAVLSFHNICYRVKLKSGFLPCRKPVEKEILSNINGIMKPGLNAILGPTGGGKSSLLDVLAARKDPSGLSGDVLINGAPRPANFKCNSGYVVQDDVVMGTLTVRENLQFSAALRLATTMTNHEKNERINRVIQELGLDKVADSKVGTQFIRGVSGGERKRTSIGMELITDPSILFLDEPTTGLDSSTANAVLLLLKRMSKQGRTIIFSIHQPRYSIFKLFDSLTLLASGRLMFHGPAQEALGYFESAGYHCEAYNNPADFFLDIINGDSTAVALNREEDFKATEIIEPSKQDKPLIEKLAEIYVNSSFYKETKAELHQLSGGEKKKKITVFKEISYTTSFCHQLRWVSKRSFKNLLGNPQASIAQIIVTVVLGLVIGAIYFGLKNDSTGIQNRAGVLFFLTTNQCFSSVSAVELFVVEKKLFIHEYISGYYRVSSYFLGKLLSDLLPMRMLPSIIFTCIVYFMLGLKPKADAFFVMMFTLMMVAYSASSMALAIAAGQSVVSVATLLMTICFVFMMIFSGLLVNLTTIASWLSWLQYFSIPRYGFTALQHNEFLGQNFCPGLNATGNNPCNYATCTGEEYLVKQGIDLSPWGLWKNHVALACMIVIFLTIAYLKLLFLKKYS", "experiment": "Clinical studies and physiologically based pharmacokinetic modeling of OM as perpetrator", "assay_type": "in vivo", "set-up": "from tissue", "conditions": "clinical studies and PBPK modeling; result in words"}, "[2]": {"test_system": "patients with EF≤30%, without AFF, without digoxin", "assay_type": "in vivo, human"}, "[3]": {"biological_target": "T1, BCRP", "experiment": "Transporter substrate assessment", "assay_type": "in vitro ADME", "conditions": "result in words"}, "[4]": {"test_system": "plasma proteins", "experiment": "Plasma protein binding", "assay_type": "in vitro ADME"}, "[5]": {"conditions": "EF ≤30%, no AFF, no digoxin, OM + standard care (n = 2674)"}, "[6]": {"conditions": "EF ≤30%, no AFF, no digoxin, OM vs Pbo"}}, "data": [{"molecule": "COC(=O)N1CCN(Cc2cccc(NC(=O)Nc3ccc(C)nc3)c2F)CC1", "note": "[omecamtiv mecarbil]", "values": [{"measurement": "Inhibition of BCRP", "setting": "[1]", "value": "weak inhibitor"}, {"measurement": "Cumulative rate of HFEs at 36 months", "setting": "[2]; [5]", "value": "81.8/ /100 pts"}, {"measurement": "Frequency of HFE (all events)", "setting": "[2]; [5]", "value": "31.2/ /100 pt yrs"}, {"measurement": "IV Diuretics /Inotropes Nasodilators", "setting": "[2]; [5]", "value": "35.7 /100 pt yrs"}, {"measurement": "Mechanical circulatory support during HF hospitalizations", "setting": "[2]; [5]", "value": "2.2 /100 pt yrs"}, {"measurement": "Mechanical fluid removal during HF hospitalizations", "setting": "[2]; [5]", "value": "0.8 /100 pt yrs"}, {"measurement": "Time to first HFE, rate", "setting": "[2]; [5]", "value": "18.9/ /100 pt yrs"}, {"measurement": "Total days in hospital", "setting": "[2]; [5]", "value": "524.1 /100 pt yrs"}, {"measurement": "Cumulative rate of HFEs at 36 months, Rate Ratio", "setting": "[2]; [6]", "value": "Rate Ratio 0.799"}, {"measurement": "Cumulative rate of HFEs: treatment effect over time", "setting": "[2]; [6]", "value": "increasing"}, {"measurement": "Frequency of HFE (all events), ARR", "setting": "[2]; [6]", "value": "ARR 6.7/100 pt yrs"}, {"measurement": "Frequency of HFE (all events), HR", "setting": "[2]; [6]", "value": "HR 0.85,"}, {"measurement": "Frequency of HFE (all events), NNT", "setting": "[2]; [6]", "value": "NNT 14.9"}, {"measurement": "Time to first HFE, ARR", "setting": "[2]; [6]", "value": "ARR 3.8/100 pt yrs"}, {"measurement": "Time to first HFE, NNT", "setting": "[2]; [6]", "value": "NNT 26.5"}, {"measurement": "Clinical benefits and resource utilization", "setting": "[2]; EF≤30%, without AFF, without digoxin at baseline, result in words", "value": "significant clinical benefits and reductions in resource utilization"}, {"measurement": "Substrate of BCRP", "setting": "[3]", "value": "substrate"}, {"measurement": "Binding to plasma proteins", "setting": "[4]", "value": 81.5, "unit": "%"}, {"measurement": "Concentration dependence of protein binding", "setting": "[4]; result in words", "value": "independent of drug concentration up to 4000 ng/mL"}]}]}
